Results reported in patent US8158577B2, “Modulation of cartilage homeostasis by active domains of cell binding extracellular matrix molecules” (priority 2004, dated 2012).

Columns and labels:
[1] = tested on: IL-1 stimulated synoviocytes; experiment: IL-6 release in IL-1 stimulated synoviocytes (ELISA); format: cell-based, rat; details: 50-400 μM peptide, IL-1a 50 ng/ml, 72 hour
Method: The following experiments measure the IL-6 release in IL-1 stimulated synoviocytes.
Study design: From rats with antigen induced arthritis, the hyperproliferative synovium, pannus, was taken from the inflamed knee day four after disease onset. The pannus tissue was cut to small pieces in PBS with PEST (100 IU penicillin, 100 μg/ml streptomycin) and Fungizone (2.5 μg/ml)(all from InVitrogen, Sweden), before incubation in collagenase (400 U/ml, Worthington, USA) for 3 hours at 37° C., 5% CO2. Cells were centrifugated (8 min., room temperature, 1100 rpm.) and suspended in RPMI 1640 supplemented with 10% FCS (InVitrogen, Sweden), PEST and Fungizone and seeded in a 25 cm^2 flask at 37° C., 5% CO2. The following day, cells were rinsed once with medium and further incubated. When confluent, cells were trypsinated for 1 min (0.25% Trypsin with EDTA, InVitrogen, Sweden) counted and seeded in 96 well plates, 10000 cells/well/200 μl.
After 24 hours, the medium was changed and the cells were stimulated with human recombinant IL-1a, 50 ng/ml (Roche, Sweden). The peptide to be investigated was tested in triplets in the concentration interval 50-400 μM. After 72 hour incubation at 37° C., 5% CO2, the medium was collected for measurement of NO (Griess reaction) and IL-6 was analyzed by an ELISA, according to the manufacturer's instructions (BD Biosciences, USA).

[2] = tested on: IL-1 stimulated cartilage; experiment: NO release in IL-1 stimulated cartilage explants (Griess reaction); format: cell-based, bovine; details: 400 uM peptide, IL-1a 10 ng/ml
Method: The following experiments measure the effect of a peptide on NO release in IL-1 stimulated cartilage.
Study design: A skinned bovine nose (from cows 18-24 months old) was collected at Hörby slaughter house (Team Ugglarp, Sweden). The septum inside the nose was cut out and the mucosa and the perichondrium was removed before the cartilage was placed in PBS with PEST (100 IU penicillin, 100 μg/ml streptomycin) and 2.5 μg/ml Fungizone (all from Invitrogen, Sweden) for 2 hours at room temperature.
Two mm pieces were punched out of the cartilage. Each piece was placed in a 24-well cell culture plate (Falcon, Sweden) containing 1 ml cell culture medium, HAMs F12 (Invitrogen, Sweden) supplemented with 10 μg/ml BSA, […] (both from Sigma, Sweden), PEST (100 IU penicillin, […]) and 2.5 μg/ml Fungizone. After 24 hours, the medium was changed and the cartilage pieces were stimulated with human recombinant IL-1a, 10 ng/ml (Roche, Sweden). The peptides where tested in triplet at 20 and 400 μM. The cartilage tissue was incubated for another six days, mediums were exchanged every third day. On each occasion the media were collected for measurement of NO (Griess reaction).

[3] = tested on: m-BSA antigen induced monoarthritis in rat; experiment: In vivo antigen induced arthritis, knee-joint swelling; details: intra-articular, twice daily
Method: The following model experiment measure the effect of the investigated compound on knee-joint swelling using antigen induced arthritis.
The effect of locally administered test compound, 400 mM given twice daily, on the development of arthritis in m-BSA antigen induced monoarthritis in rat was evaluated. Animals treated with saline or Methotrexate (in clinically relevant dose) were used as controls.
Study design: Female Dark Agouti rats, weighing approximately 150 g (B&K breeding center, Denmark) were used. The animals were sensitised intradermally at the tail root with 1 mg mBSA (Sigma A-1009) dissolved in […] and emulsified in […] complete adjuvant (Sigma F 5881). Ten days later the rats were shaved (left knee) and challenged with an intraarticular (i.a) injection of […]. Test compounds were administered intra-articular (left knee) in […] four hours before challenge and thereafter twice daily. The development of arthritis (knee diameters) was registered with an odimeter/calliper. The procedures were carried out under a brief Enflurane anaesthesia. The animals were sacrificed at day 4 after challenge/first treatment.

[4] = tested on: K105 cells; experiment: Adhesion of K105 cells to chondroadherin in the presence of synthetic peptide (FIG. 3, 5A-5B, 13); format: cell-based, human; details: 1 hour at 37° C.
Method: Human cells (K9) originating from a human chondrosarcoma were a kind gift from Drs. Sven Inerot and Anders Lindahl, The Salgrenska University Hospital Gothenburg, Sweden. The K9 cells were cultured in Dulbeccos Modified Eagle Medium: Nutrient Mixture F12 (DMEM/F12 1:1) with GLUTAMAX I, supplemented with 10% fetal calf serum, 25 μg/ml ascorbic acid, 50 IU of penicillin and 50 μg/ml streptomycin (Life Technologies, Inc.). A different human cells line (K105) originating from a human chondrosarcoma was a kind gift from Dr. Sven Inerot, The Salgrenska University Hospital, Gothenburg, Sweden. The K105 cells were cultured in a mix of 40% Dulbeccos Modified Eagle Medium, 40% Minimum Essential Media (MEM) alpha Medium, 10% Nutrient Mixture F1 supplemented with 100 nM hydrocortisone, 100 ng/ml insulin, 10% fetal calf serum, 25 μg/ml ascorbic acid, 50 IU of penicillin and 50 μg/ml streptomycin (Life Technologies, Inc.). To harvest cells, culture dishes were rinsed three times with Ca^2+/Mg^2+-free PBS and the cells were incubated with 0.5% trypsin and 1 mM EDTA for 5 min. Detached cells were suspended in PBS containing 1 mg/ml trypsin inhibitor (Sigma) and then washed in PBS. To remove membrane-bound collagens the cells were treated with collagenase 100 U/ml (CLSPA; Worthington Biochemical Corp., Lakewood, N.J.) in PBS, 30 min. 37° C. and then washed in PBS.
Tissue culture 48-wells dishes (Nunclon, Nunc, Denmark) were coated overnight with 5 μg/ml chondroadherin in 4M Guanidine-HCl, 50 mM sodium acetate, pH 5.8, or for native protein in PBS. Alternatively coating was with 5 μg/ml collagen type II in PBS followed by after-coating with 0.5% BSA in PBS for 3 hours. Collagen type II was isolated from bovine nasal cartilage by pepsin digestion (11). Bacterially expressed chondroadherin was isolated as described above. Recombinant chondroadherin expressed in EBNA cell was cloned and purified as described elsewhere (8).
To test cell binding, the chondrosarcoma cells or bovine chondrocytes were suspended in PBS containing 0.1% BSA, 25 U/ml collagenase and added to the wells (50,000/well), in the absence or presence of various peptide pools or the synthetic peptides (200, 100, 50, 25, 12.5 μg/ml). Non-adherent cells were removed after 1 hour and adhesion was determined by measuring lysosomal N-acetylglucosaminidase (12). Adhesion and spreading was visualized by light microscopy. In the time studies, k105 cells were allowed to adhere for 30 minutes, unbound cells were removed and medium without serum supplemented with or without peptides (250 μg/ml), β1 integrin antibody (clone P4C10, Gibco BRL), EDTA (5 mM) was added. Cell morphology was visualized by light microscopy after 1, 3 and 20 hours.
Study design: Tissue culture dishes (48-wells) were coated with 5 μg/ml chondroadherin expressed in E. coli and blocked for non-specific binding with BSA. […] were suspended in PBS containing 0.1% BSA, 25 U/ml collagenase and added to the wells (50,000/well) in the presence of synthetic peptide to be tested and allowed to adhere for 1 hour at 37° C. Nonadherent cells were removed by washing, and adhesion was determined by analyzing lysosomal hexosaminidase.
A 12-mer peptide (1947.01) plus an N-terminal cysteine (CQLRGLRRWLEAK) (SEQ ID NO. 3) representing the candidate sequence identified by mass spectrometry were synthesized and its ability to inhibit cell adhesion was determined. Tissue culture dishes were coated with 5 μg/ml chondroadherin expressed in E. coli and blocked for non-specific binding with BSA. The cells were suspended in PBS containing 0.1% BSA, 25 U/ml collagenase and added to the wells (50,000/well) in the presence of synthetic peptide (200, 100, 50, 25, 12.5 μg/ml) and allowed to adhere for 1 hour at 37° C. Nonadherent cells were removed by washing, and adhesion was determined by analyzing lysosomal hexosaminidase. […]

H-[CQLRGLRRWLEAKASRPDATC]-OH (H-CQLRGLRRWLEAKASRPDATC-OH; also: cyclised (brackets), bond type not given here) [SEQ ID No. 9]
IL-6-release from IL-1 stimulated synoviocytes [1]: decrease
NO-release from IL-1 stimulated cartilage explants [2]: decrease
disease-ameliorating effect compared with methotrexate [3]: in the same magnitude as methotrexate treatment
knee-joint swelling compared with saline treated animals ([3]; 4 days): decreased
inhibitory effect on K105 cell adhesion to chondroadherin (Example II, FIG. 13) [4]: inhibitory effect
